Data taken from publication PMC10060569 (Frontiers in Pharmacology, 2023).
Values joined by “and” are separate entries in the source; they are usually repeats but may differ in a detail not shown here. Equal entries are not always repeated.

Biological target: T1, S15V-hP2X3R (Homo sapiens, UniProt P56373, S15V)
T1 construct: expressed in transfected cells; host or cells: Xenopus laevis oocytes (cRNA injection)
T1 sequence (P56373 1-397 S15V): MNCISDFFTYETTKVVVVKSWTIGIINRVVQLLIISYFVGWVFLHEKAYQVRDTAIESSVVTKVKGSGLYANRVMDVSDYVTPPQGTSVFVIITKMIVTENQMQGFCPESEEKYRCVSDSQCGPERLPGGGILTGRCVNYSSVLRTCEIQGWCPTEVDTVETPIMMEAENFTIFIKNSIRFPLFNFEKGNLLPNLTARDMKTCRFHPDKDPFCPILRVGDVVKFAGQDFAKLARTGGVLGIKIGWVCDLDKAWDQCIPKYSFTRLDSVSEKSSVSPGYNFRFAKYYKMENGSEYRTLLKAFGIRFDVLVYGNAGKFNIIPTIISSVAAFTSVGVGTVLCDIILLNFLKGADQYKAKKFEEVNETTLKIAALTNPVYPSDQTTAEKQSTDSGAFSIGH
Experiment: TEVC of ATP-induced currents, S15V-hP2X3R expressed in X. laevis oocytes (peak current protocol)
Format: cell-based
Details: for IC50 / inhibition at 1000 µM: 1 µM ATP; for IC50: 30-s preincubation of antagonist, X. laevis oocytes, −60 mV, geometric mean; for inhibition at 1000 µM: 1 mM antagonist, mean ± SEM, read-out: Max. inhibition at 1 mM; for reversibility of the inhibitory effect by washout: subsequent control current after washout
Text: Oocyte expression plasmids encoding the wild-type (wt) and N-terminally His-tagged (His-) fusion constructs of the hP2X2R, hP2X3R, hP2X4R, and hP2X7R, and the mutant His-^20RMVL^23KVIV^23S^26N-hP2X1R, S^15V-rP2X3R, and His-S^15V-hP2X3R were the same as used in previous research ([Hausmann et al., 2006]; [Wolf et al., 2011]; [Hausmann et al., 2014]; [Obrecht et al., 2019]). In most cases, the N-terminal His-tagged variants of P2XRs were used here and in the previous studies to allow biochemical analyses on affinity-purified proteins using the same constructs. Although this was not required for the present study, it allows for better comparability with our previous studies. Capped cRNAs of different P2XRs were already available in the research group or were synthesized as previously described ([Schmalzing et al., 1991]; [Stolz et al., 2015]). cRNA was injected into collagenase-defolliculated X. laevis oocytes in aliquots of 41 nl or 23 nl (see Supplementary Table S1 for the amount of cRNA used for expression of the indicated P2XR) using a Nanoliter 2000 injector (World Precision Instruments, Sarasota, United States of America) as described previously ([Hausmann et al., 2014]; [Stolz et al., 2015]; [Obrecht et al., 2019]). To express the heteromeric hP2X2/3 receptor, cRNAs encoding His-hP2X2R and wt-hP2X3R were coinjected at a ratio (w/w) of 1:6. Oocytes were stored at 19°C in an oocyte ringer solution (ORi^+) containing 90 mM NaCl, 1 mM KCl, 1 mM CaCl2, 1 mM MgCl2, and 10 mM HEPES (Carl Roth, Karlsruhe, Germany) adjusted to pH 7.4 with NaOH and supplemented with 50 μg/ml gentamicin (AppliChem, Darmstadt, Germany). The procedures followed for the maintenance of and the surgical treatment for X. laevis adults were approved by the governmental animal care and use committee of the State Agency for Nature, Environment, and Consumer Protection (LANUV, Recklinghausen, Germany; reference no. 81-02.04.2019. A355), in compliance with Directive 2010/63/EU of the European Parliament and of the Council on the protection of animals used for scientific purpose.
Ion currents mediated by P2X receptors were evoked by the indicated concentration of ATP or α,β-meATP and were recorded 1 or 2 days after cRNA injection at ambient temperature at a holding potential of −60 mV by two-electrode voltage clamp (TEVC) as previously described ([Hausmann et al., 2006]). Calcium-free ORi^− solution (90 mM NaCl, 1 mM KCl, 2 mM MgCl2, 10 mM HEPES, pH 7.4) was used to avoid bias due to calcium-activated chloride channels (CaCC) endogenously expressed in X. laevis oocytes ([Miledi, 1982]; [Methfessel et al., 1986]). For recordings of wt-hP2X7R, the composition of the ORi^− solution was modified according to protocols described previously and contained 100 mM NaCl, 2.5 mM KCl, 1 mM MgCl2, 5 mM HEPES, pH 7.4 ([Klapperstück et al., 2000]). The oocytes were continuously superfused with ORi^− by gravity flow (5–10 ml/min). The agonists ATP or α,β-meATP and the investigated NSAIDs were diluted in ORi^− on the day of the recording. […] A peak current protocol (Supplementary Figure S1) was used to analyze fast- and intermediate desensitizing P2XR subtypes (P2X1R, P2X3R, and S^15V-P2X3R), and a steady-state protocol (Supplementary Figure S2) was used for slowly or partially desensitizing P2X subtypes (P2X2R, P2X2/3R, and P2X4R). For recordings of P2X7R, a modified steady-state protocol was used ([Hausmann et al., 2006]). The application of different bath solutions was controlled by computer-operated magnetic valves controlled by the CellWorks E 5.5.1 software (npi electronic, Tamm, Germany).
Antagonist concentration–response data and IC50 values were calculated by normalizing ATP-induced responses to the control responses (recorded in the presence and absence of the antagonist, respectively). […]

Row | Structure (SMILES) | IC50 | inhibition at 1000 µM | reduction of current amplitude in the presence of 3–10 µM diclofenac (3–10 µM diclofenac) | inhibition at 3 µM (read-out: % inhibition of 10 µM ATP-induced currents by 3 µM diclofenac, 3 µM diclofenac, 10 µM ATP, ± SEM) | inhibition at 30 µM (read-out: % inhibition of 10 µM ATP-induced currents by 30 µM diclofenac, 30 µM diclofenac, 10 µM ATP, ± SEM) | reversibility of the inhibitory effect by washout
1 | O=C(O)Cc1ccccc1Nc1c(Cl)cccc1Cl [Diclofenac, diclofenac] | 138 µM | ~80% | 20%–30% | -1.6% | 24% | not reversible
2 | O=C(O)c1ccccc1Nc1cccc(C(F)(F)F)c1 [Flufenamic acid, flufenamic acid] | 221 µM and 222 µM | 69.8% | – | – | – | not reversible
